According to ChEMBL document CHEMBL4613212, “Insights of synthetic analogues of anti-leprosy agents” (Bioorg Med Chem, 2019):
Values after ≈ are worked out from the molar mass of the structure shown.

Columns and labels:
[1] = tested on: Mycobacterium leprae; assay: Anti-leprotic activity against Mycobacterium leprae infected in BALB/c mouse assessed as time delay in bacterial multiplication in footpad at 0.012 g/100g of diet administered via feed starting 60 or 75 day post infection up to 90 days by Shepard's kinetic method; assay type: functional
[2] = tested on: Monocyte; assay: Antiinflammatory activity in human monocytes assessed as inhibition of LPS-induced TNFaplha production preincubated for 15 mins followed by LPS addition and measured after 4 hrs by ELISA; assay type: functional, cell-based
[3] = tested on: Monocyte; assay: Antiinflammatory activity in human monocytes assessed as inhibition of LPS-induced TNFaplha production at 50 uM preincubated for 15 mins followed by LPS addition and measured after 4 hrs by ELISA relative to control; assay type: functional
[4] = Cytotoxicity against LPS-induced human monocytes assessed as cell viability at 50 uM by tryphan blue staining based assay relative to control; parameters: species or system Monocyte; conditions: read-out: Activity
[5] = tested on: Mycobacterium leprae; assay: Antimicrobial activity against Mycobacterium leprae; assay type: functional
[6] = tested on: Mycobacterium leprae; assay: Anti-leprotic activity against Mycobacterium leprae subcultures at 4 weeks assessed as ATP level per 10^7 cells at 0.025 mg/L measured by bioluminescence assay (reference value: 462 +/- 64 pg); assay type: functional
[7] = tested on: Mycobacterium leprae; assay: Anti-leprotic activity against Mycobacterium leprae subcultures at 4 weeks assessed as ATP level per 10^7 cells at 0.01 mg/L measured by bioluminescence assay (reference value: 462 +/- 64 pg); assay type: functional
[8] = tested on: Mycobacterium leprae; assay: Anti-leprotic activity against Mycobacterium leprae primary cultures at 4 weeks assessed as [3H]thymidine uptake per 5 times 10^7 cells at 0.005 mg/L (reference value: 0.95 +/- 0.01 pmol); assay type: functional
[9] = tested on: Mycobacterium leprae; assay: Anti-leprotic activity against Mycobacterium leprae subcultures at 4 weeks assessed as [3H]thymidine uptake per 5 times 10^7 cells at 0.01 mg/L (reference value: 1.28 +/- 0.14 pmol); assay type: functional
[10] = tested on: Mycobacterium leprae; assay: Anti-leprotic activity against Mycobacterium leprae primary cultures at 4 weeks assessed as [3H]thymidine uptake per 5 times 10^7 cells at 0.01 mg/L (reference value: 0.95 +/- 0.01 pmol); assay type: functional
[11] = tested on: Mycobacterium leprae; assay: Anti-leprotic activity against Mycobacterium leprae primary cultures at 4 weeks assessed as ATP level per 10^7 cells at 0.005 mg/L measured by bioluminescence assay (reference value: 314 +/- 46 pg); assay type: functional
[12] = tested on: Mycolicibacterium smegmatis; assay: Antimycobacterial activity against DDS sensitive Mycobacterium smegmatis ATCC 607 […]; assay type: functional
[13] = tested on: Mycobacterium leprae; assay: Anti-leprotic activity against Mycobacterium leprae primary cultures at 4 weeks assessed as ATP level per 10^7 cells at 0.01 mg/L measured by bioluminescence assay (reference value: 314 +/- 46 pg); assay type: functional
[14] = tested on: Rattus norvegicus; assay: Effect of metallo-protein haemoglobin in rat assessed as peak methemoglobin level at 400 mg/kg, sc administered as single dose; assay type: ADME, organism-based; conditions: in vivo
[15] = tested on: Mycobacterium leprae; assay: (§1) Inhibition of PGL1 synthesis in Mycobacterium leprae infected Swiss Webster mouse macrophages assessed as decrease in [U-14C]PA incorporation at 2 uM preincubated for 4 days post infection followed by [U-14C]PA addition and measured after 7 days by liquid scintillation counter analysis relative to control; assay type: functional
[16] = tested on: Mycobacterium leprae; assay: Anti-leprotic activity against Mycobacterium leprae primary cultures at 4 weeks assessed as ATP level per 10^7 cells at 0.025 mg/L measured by bioluminescence assay (reference value: 314 +/- 46 pg); assay type: functional
[17] = tested on: Mycobacterium leprae; assay: Anti-leprotic activity against Mycobacterium leprae primary cultures at 4 weeks assessed as [3H]thymidine uptake per 5 times 10^7 cells at 0.025 mg/L (reference value: 0.95 +/- 0.01 pmol); assay type: functional
[18] = tested on: Mycobacterium leprae; assay: Anti-leprotic activity against Mycobacterium leprae infected in 538 CBA mouse assessed as number of Mycobacterium leprae in paw pads at 2 mg/kg administrated via gastric tube 5 times a week and measured 7 months post infection; assay type: functional
[19] = tested on: Mycobacterium leprae; assay: Anti-leprotic activity against Mycobacterium leprae infected in albino mouse assessed survival against infection at 400 mg/kg, sc administered 58 days post-infection and subsequent compound dosing at 200 mg/kg at 0.5, 1 or 2 months interval; assay type: functional
[20] = tested on: Mycobacterium leprae; assay: Anti-leprotic activity against Mycobacterium leprae subcultures at 4 weeks assessed as [3H]thymidine uptake per 5 times 10^7 cells at 0.005 mg/L (reference value: 1.28 +/- 0.14 pmol); assay type: functional
[21] = tested on: Mycobacterium leprae; assay: Anti-leprotic activity against Mycobacterium leprae subcultures at 4 weeks assessed as ATP level per 10^7 cells at 0.005 mg/L measured by bioluminescence assay (reference value: 462 +/- 64 pg); assay type: functional
[22] = tested on: Mycobacterium leprae; assay: Anti-leprotic activity against Mycobacterium leprae infected in CBA mouse assessed as number of Mycobacterium leprae in paw pads at 30 mg/kg administrated 5 times a week and measured 7.5 months post infection (reference value: 3.91 +/- 0.33 10^5); assay type: functional
[23] = tested on: Mycobacterium leprae; assay: Anti-leprotic activity against Mycobacterium leprae infected in CBA mouse assessed as number of Mycobacterium leprae in paw pads at 10 mg/kg administrated 5 times a week and measured 7.5 months post infection (reference value: 3.91 +/- 0.33 10^5); assay type: functional
[24] = tested on: Mycobacterium leprae; assay: Anti-leprotic activity against Mycobacterium leprae subcultures at 4 weeks assessed as [3H]thymidine uptake per 5 times 10^7 cells at 0.025 mg/L (reference value: 1.28 +/- 0.14 pmol); assay type: functional
[25] = Drug excretion in rat urine at 400 mg/kg, sc administered as single dose measured after 30 days; assay type: ADME, organism-based; conditions: read-out: Drug excretion
[26] = Drug concentration in rat blood at 400 mg/kg, sc administered as single dose; assay type: ADME, organism-based; conditions: in vivo
[27] = tested on: Mycobacterium leprae; assay: Anti-leprotic activity against Mycobacterium leprae infected in BALB/c mouse assessed as time delay in bacterial multiplication in footpad at 0.0001 g/100g of diet administered via feed starting 60 or 75 day post infection up to 90 days by Shepard's kinetic method; assay type: functional
[28] = tested on: Mycolicibacterium smegmatis; assay: Antimycobacterial activity against DDS resistant Mycobacterium smegmatis ATCC 607 […]; assay type: functional
[29] = tested on: Mycobacterium leprae; assay: as §1, with “20” for “2”; assay type: functional
[30] = tested on: Plasmodium berghei; assay: Antimalarial activity against Plasmodium berghei infected in albino mouse assessed survival against infection at 400 mg/kg, sc administered as single dose; assay type: functional
[31] = tested on: Mycobacterium leprae; assay: Anti-leprotic activity against Mycobacterium leprae infected in BALB/c mouse assessed as time delay in bacterial multiplication in footpad at 0.008 g/100g of diet administered via feed starting 60 or 75 day post infection up to 90 days by Shepard's kinetic method; assay type: functional

Work on `CC(=O)Nc1ccc(S(=O)(=O)c2ccc(NC(C)=O)cc2Cl)cc1` yielded a Time [1] of 85 days.

In the case of `CCC1(N2C(=O)c3cccc([N+](=O)[O-])c3C2=O)C(=O)NC(=O)N(c2ccccc2)C1=O` (stereo unspecified), the IC50 [2] is reported as 3000 µM, the inhibition at 50 µM [3] is reported as < 10% and the viability at 50 µM [4] is reported as 77%.

For `Nc1ccc(S(=O)(=O)c2ccc(N)cc2)cc1` [DAPSONE], the MIC [5] was 15 µg/mL (≈ 60.4 µM), the Activity [6] was 0 pg and the Activity [7] was 396 pg. It also gave an Activity [8] of 0.98 pmol, an Activity [9] of 0.92 pmol and an Activity [10] of 0.79 pmol. The Activity [11] was 334 pg, the MIC [12] was 8.1 µg/mL (≈ 32.6 µM) and the Activity [13] was 307 pg. The Activity [14] was 3.9 g/dL, the inhibition at 2 µM [15] was 92% and the Activity [16] was 0 pg. The Activity [17] was 0 pmol, the Activity [18] was 0.025 ×10⁷ No_unit and the Survival [19] was 2 weeks. The Activity [20] was 1.37 pmol, the Activity [21] was 514 pg and the Activity [22] was 0.22 ×10⁵ No_unit. The Activity [23] was 0.27 ×10⁵ No_unit, the Activity [24] was 0 pmol and the dose excreted at 720 h [25] was 57%. For the same compound, the Drug uptake [26] was 13.8 µg/mL, the Time [27] was >91 days and the MIC [28] was 3220 µg/mL (≈ 13000 µM). For the same compound, the inhibition at 20 µM [29] was 91% and the Survival [30] was <1 weeks.

For `Nc1ccc(Cc2ccc(N)cc2)cc1`, the Time [31] was <10 days.
